Numbered stars: 1 amine (or outer) side, 2 acyl side, 3 side chain; on linkers, the order of the positions; unused ones are H or OH. Bridge positions count the residues as written; N and C are the ends. Side chains are listed from the residue outwards. Peptide text beside a SMILES is read from it. * marks the point of attachment. γGlu = O=C(O)[C@H](CCC(=O)[*:2])N[*:1]; Palmitoyl = CCCCCCCCCCCCCCCC(=O)*
test system: mice; assay: Forced swim test (FST); type: in vivo, mouse; settings: qualitative result; 0.03 mg/kg dosing, as in Example 8
Excerpt: The forced swim test (FST) is a commonly used paradigm to evaluate antidepressant activity of drugs. The FST is based on measurement of the animal's floating time in a tank filled with water. When rats or mice are forced to swim in a deep cylinder with tepid water they become nearly immobile and cease trying to escape. Without wishing to be bound by any theory, it is believe that this characteristic immobile posture reflects a depressive-like state which is readily influenced by a wide variety of antidepressants. See, e.g., Hedou et al., 2001, Pharmacol, Biochem. Behay. 70:65-76; Chaki et al., 2003, J. Pharmacol. Exp. Ther. 304:818-826; Porsolt et al., 1977, Nature 266:730-732. Antidepressants decrease the immobility time in the FST. Vehicle or test compound can be delivered continuously for two weeks to mice by subcutaneously implanted osmotic pumps prior to the FST. Indeed, any route of administration (e.g., intraperitoneal, subcutaneous, oral and the like) is available. Mice can be placed in the water tank for assessment of climbing, swimming, and immobility over a defined trial session, typically 6 minutes. Test session parameters for mice and rats are typically different, as known in the art.
The forced swim test (FST) is a commonly used paradigm to evaluate antidepressant activity of drugs. […] Specifically, vehicle or test compound was delivered continuously for two weeks to mice by subcutaneously implanted osmotic pumps prior to the FST assay, by methods well known in the art. On day one, the patients were introduced into the tank for a 15 minute pre-swim session. On day two, the patients were placed back into the water tank for assessment of climbing, swimming, and immobility over a 6 minute trial session. The rate of compound infusion was 0.03 mg/kg/day.

| SMILES | FST Assay, 0.03 mg/kg |
| --- | --- |
| CCCCCCCCCCCCCCCC(=O)N[C@@H](CCC(=O)NCCCC[C@H](NC(=O)[C@@H]1CCCN1C(=O)[C@H](Cc1ccc(O)cc1)NC(=O)[C@@H](NC(=O)[C@H](CCC(N)=O)NC(=O)[C@H](CC(C)C)NC(=O)[C@H](CCCNC(=N)N)NC(=O)[C@H](Cc1c[nH]cn1)NC(=O)[C@H](CC(C)C)NC(=O)[C@H](CCC(=O)O)NC(=O)[C@H](CCC(N)=O)NC(=O)[C@H](C)NC(=O)[C@H](CC(C)C)NC(=O)[C@H](CCCNC(=N)N)NC(=O)[C@H](CCC(N)=O)NC(=O)[C@H](CC(C)C)NC(=O)[C@H](C)NC(=O)[C@@H]1CSSC[C@H](NC(=O)[C@@H](N)CCCCN)C(=O)N[C@@H](CC(N)=O)C(=O)N[C@@H]([C@@H](C)O)C(=O)N[C@@H](C)C(=O)N[C@@H]([C@@H](C)O)C(=O)N1)[C@@H](C)O)C(=O)N[C@H](C(=O)N[C@@H](CC(N)=O)C(=O)N[C@H](C(=O)NCC(=O)N[C@@H](CO)C(=O)N[C@@H](CC(N)=O)C(=O)N[C@H](C(=O)N[C@@H](Cc1ccc(O)cc1)C(N)=O)[C@@H](C)O)C(C)C)[C@@H](C)O)C(=O)O [Cmpd 188, [K^24ε-(γ-Glu(Nα-C16-Chain))]-Cmpd 17] (H-KCNTATCALQRLAQELHRLQTYPK([γGlu-Palmitoyl])TNVGSNTY-NH2; disulfide 2-7 (inferred); N-terminus assumed) | Inactive |
| CCCCCCCCCCCCCCCC(=O)N[C@@H](CCC(=O)NCCCC[C@H](NC(=O)[C@H](Cc1c[nH]cn1)NC(=O)[C@H](CC(C)C)NC(=O)[C@H](CCC(=O)O)NC(=O)[C@H](CCC(N)=O)NC(=O)[C@H](C)NC(=O)[C@H](CC(C)C)NC(=O)[C@H](CCCNC(=N)N)NC(=O)[C@H](CCC(N)=O)NC(=O)[C@H](CC(C)C)NC(=O)[C@H](C)NC(=O)[C@@H]1CSSC[C@H](NC(=O)[C@@H](N)CCCCN)C(=O)N[C@@H](CC(N)=O)C(=O)N[C@@H]([C@@H](C)O)C(=O)N[C@@H](C)C(=O)N[C@@H]([C@@H](C)O)C(=O)N1)C(=O)N[C@@H](CC(C)C)C(=O)N[C@@H](CCC(N)=O)C(=O)N[C@H](C(=O)N[C@@H](Cc1ccc(O)cc1)C(=O)N1CCC[C@H]1C(=O)N[C@@H](CCCNC(=N)N)C(=O)N[C@H](C(=O)N[C@@H](CC(N)=O)C(=O)N[C@H](C(=O)NCC(=O)N[C@@H](CO)C(=O)N[C@@H](CC(N)=O)C(=O)N[C@H](C(=O)N[C@@H](Cc1ccc(O)cc1)C(N)=O)[C@@H](C)O)C(C)C)[C@@H](C)O)[C@@H](C)O)C(=O)O [Cmpd 186, [K^18ε-(γ-Glu(Nα-C16-Chain))]-Cmpd 17] (H-KCNTATCALQRLAQELHK([γGlu-Palmitoyl])LQTYPRTNVGSNTY-NH2; disulfide 2-7 (inferred); N-terminus assumed) | Inactive |
| CCCCCCCCCCCCCCCC(=O)N[C@@H](CCC(=O)NCCCC[C@H](N)C(=O)N[C@H]1CSSC[C@@H](C(=O)N[C@@H](C)C(=O)N[C@@H](CC(C)C)C(=O)N[C@@H](CCC(N)=O)C(=O)N[C@@H](CCCNC(=N)N)C(=O)N[C@@H](CC(C)C)C(=O)N[C@@H](C)C(=O)N[C@@H](CCC(N)=O)C(=O)N[C@@H](CCC(=O)O)C(=O)N[C@@H](CC(C)C)C(=O)N[C@@H](Cc2c[nH]cn2)C(=O)N[C@@H](CCCNC(=N)N)C(=O)N[C@@H](CC(C)C)C(=O)N[C@@H](CCC(N)=O)C(=O)N[C@H](C(=O)N[C@@H](Cc2ccc(O)cc2)C(=O)N2CCC[C@H]2C(=O)N[C@@H](CCCNC(=N)N)C(=O)N[C@H](C(=O)N[C@@H](CC(N)=O)C(=O)N[C@H](C(=O)NCC(=O)N[C@@H](CO)C(=O)N[C@@H](CC(N)=O)C(=O)N[C@H](C(=O)N[C@@H](Cc2ccc(O)cc2)C(N)=O)[C@@H](C)O)C(C)C)[C@@H](C)O)[C@@H](C)O)NC(=O)[C@H]([C@@H](C)O)NC(=O)[C@H](C)NC(=O)[C@H]([C@@H](C)O)NC(=O)[C@H](CC(N)=O)NC1=O)C(=O)O [Cmpd 192, [K^1ε-(γ-Glu(Nα-C16-Chain))]-Cmpd 17] (H-K([γGlu-Palmitoyl])CNTATCALQRLAQELHRLQTYPRTNVGSNTY-NH2; disulfide 2-7 (inferred); N-terminus assumed) | Active |
| CCCCCCCCCCCCCCCC(=O)N[C@@H](CCC(=O)NCCCC[C@H](NC(=O)[C@H](CCC(N)=O)NC(=O)[C@H](CC(C)C)NC(=O)[C@H](C)NC(=O)[C@@H]1CSSC[C@H](NC(=O)[C@@H](N)CCCCN)C(=O)N[C@@H](CC(N)=O)C(=O)N[C@@H]([C@@H](C)O)C(=O)N[C@@H](C)C(=O)N[C@@H]([C@@H](C)O)C(=O)N1)C(=O)N[C@@H](CC(C)C)C(=O)N[C@@H](C)C(=O)N[C@@H](CCC(N)=O)C(=O)N[C@@H](CCC(=O)O)C(=O)N[C@@H](CC(C)C)C(=O)N[C@@H](Cc1c[nH]cn1)C(=O)N[C@@H](CCCNC(=N)N)C(=O)N[C@@H](CC(C)C)C(=O)N[C@@H](CCC(N)=O)C(=O)N[C@H](C(=O)N[C@@H](Cc1ccc(O)cc1)C(=O)N1CCC[C@H]1C(=O)N[C@@H](CCCNC(=N)N)C(=O)N[C@H](C(=O)N[C@@H](CC(N)=O)C(=O)N[C@H](C(=O)NCC(=O)N[C@@H](CO)C(=O)N[C@@H](CC(N)=O)C(=O)N[C@H](C(=O)N[C@@H](Cc1ccc(O)cc1)C(N)=O)[C@@H](C)O)C(C)C)[C@@H](C)O)[C@@H](C)O)C(=O)O [Cmpd 193, [K^11ε(γ-Glu(Nα-C16-Chain))]-Cmpd 17] (H-KCNTATCALQK([γGlu-Palmitoyl])LAQELHRLQTYPRTNVGSNTY-NH2; disulfide 2-7 (inferred); N-terminus assumed) | Inactive |
| CCCCCCCCCCCCCCCC(=O)N[C@@H](CCC(=O)NCCCC[C@H](NC(=O)[C@H](CCC(N)=O)NC(=O)[C@H](CC(C)C)NC(=O)[C@H](CCCNC(=N)N)NC(=O)[C@H](Cc1c[nH]cn1)NC(=O)[C@H](CC(C)C)NC(=O)[C@H](CCC(=O)O)NC(=O)[C@H](CCC(N)=O)NC(=O)[C@H](C)NC(=O)[C@H](CC(C)C)NC(=O)[C@H](CCCNC(=N)N)NC(=O)[C@H](CCC(N)=O)NC(=O)[C@H](CC(C)C)NC(=O)[C@H](C)NC(=O)[C@@H]1CSSC[C@H](NC(=O)[C@@H](N)CCCCN)C(=O)N[C@@H](CC(N)=O)C(=O)N[C@@H]([C@@H](C)O)C(=O)N[C@@H](C)C(=O)N[C@@H]([C@@H](C)O)C(=O)N1)C(=O)N[C@@H](Cc1ccc(O)cc1)C(=O)N1CCC[C@H]1C(=O)N[C@@H](CCCNC(=N)N)C(=O)N[C@H](C(=O)N[C@@H](CC(N)=O)C(=O)N[C@H](C(=O)NCC(=O)N[C@@H](CO)C(=O)N[C@@H](CC(N)=O)C(=O)N[C@H](C(=O)N[C@@H](Cc1ccc(O)cc1)C(N)=O)[C@@H](C)O)C(C)C)[C@@H](C)O)C(=O)O [Cmpd 187, [K^21ε-(γ-Glu(Nα-C16-Chain))]-Cmpd 17] (H-KCNTATCALQRLAQELHRLQK([γGlu-Palmitoyl])YPRTNVGSNTY-NH2; disulfide 2-7 (inferred); N-terminus assumed) | Inactive |
| CCCCCCCCCCCCCCCC(=O)N[C@@H](CCC(=O)NCCCC[C@H](N)C(=O)N[C@@H](CCCCN)C(=O)N[C@H]1CSSC[C@@H](C(=O)N[C@@H](C)C(=O)N[C@@H](CC(C)C)C(=O)N[C@@H](CCC(N)=O)C(=O)N[C@@H](CCCNC(=N)N)C(=O)N[C@@H](CC(C)C)C(=O)N[C@@H](C)C(=O)N[C@@H](CCC(N)=O)C(=O)N[C@@H](CCC(=O)O)C(=O)N[C@@H](CC(C)C)C(=O)N[C@@H](Cc2c[nH]cn2)C(=O)N[C@@H](CCCNC(=N)N)C(=O)N[C@@H](CC(C)C)C(=O)N[C@@H](CCC(N)=O)C(=O)N[C@H](C(=O)N[C@@H](Cc2ccc(O)cc2)C(=O)N2CCC[C@H]2C(=O)N[C@@H](CCCNC(=N)N)C(=O)N[C@H](C(=O)N[C@@H](CC(N)=O)C(=O)N[C@H](C(=O)NCC(=O)N[C@@H](CO)C(=O)N[C@@H](CC(N)=O)C(=O)N[C@H](C(=O)N[C@@H](Cc2ccc(O)cc2)C(N)=O)[C@@H](C)O)C(C)C)[C@@H](C)O)[C@@H](C)O)NC(=O)[C@H]([C@@H](C)O)NC(=O)[C@H](C)NC(=O)[C@H]([C@@H](C)O)NC(=O)[C@H](CC(N)=O)NC1=O)C(=O)O [Cmpd 195, Kε-(γ-Glu(Nα-C16-Chain))-Cmpd 17] (H-K([γGlu-Palmitoyl])KCNTATCALQRLAQELHRLQTYPRTNVGSNTY-NH2; disulfide 3-8; N-terminus assumed) | Active |
